In the kinase profiling compilation of Christmann-Franck et al. (2016):
Several values for one entry are separate records, joined by “and”; a condition that tells them apart may be missing. Equal values may be shown once. Each block holds one compound with its values, some of them ahead of it.

What was measured:
Test in all cases: Caliper, Mobility shift assay off-chip
[1] = test system: ABL1 (human), P00519 [H396P]
[2] = target: ABL2 (human) (UniProt P42684); conditions: compound 0.1 µM
[3] = target: AKT1 (human) (UniProt P31749)
Chain of AKT1 (human) (P31749 whole entry, looked up): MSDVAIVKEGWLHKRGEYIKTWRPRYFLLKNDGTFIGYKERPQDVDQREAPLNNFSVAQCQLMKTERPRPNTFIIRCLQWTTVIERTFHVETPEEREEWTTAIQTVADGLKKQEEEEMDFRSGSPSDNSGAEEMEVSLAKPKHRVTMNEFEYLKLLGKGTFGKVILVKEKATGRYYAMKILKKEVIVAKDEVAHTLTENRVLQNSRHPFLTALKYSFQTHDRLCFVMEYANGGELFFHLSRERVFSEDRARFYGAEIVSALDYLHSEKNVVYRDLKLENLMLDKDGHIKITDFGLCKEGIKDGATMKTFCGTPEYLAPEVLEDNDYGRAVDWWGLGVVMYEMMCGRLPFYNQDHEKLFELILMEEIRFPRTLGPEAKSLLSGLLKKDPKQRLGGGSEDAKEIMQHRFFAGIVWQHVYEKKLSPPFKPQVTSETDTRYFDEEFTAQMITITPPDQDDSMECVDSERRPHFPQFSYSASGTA

[4] = target: AKT3 (human) (UniProt Q9Y243)
[5] = target: AURKB (human) (UniProt Q96GD4)
Chain of AURKB (human) (Q96GD4 whole entry, looked up): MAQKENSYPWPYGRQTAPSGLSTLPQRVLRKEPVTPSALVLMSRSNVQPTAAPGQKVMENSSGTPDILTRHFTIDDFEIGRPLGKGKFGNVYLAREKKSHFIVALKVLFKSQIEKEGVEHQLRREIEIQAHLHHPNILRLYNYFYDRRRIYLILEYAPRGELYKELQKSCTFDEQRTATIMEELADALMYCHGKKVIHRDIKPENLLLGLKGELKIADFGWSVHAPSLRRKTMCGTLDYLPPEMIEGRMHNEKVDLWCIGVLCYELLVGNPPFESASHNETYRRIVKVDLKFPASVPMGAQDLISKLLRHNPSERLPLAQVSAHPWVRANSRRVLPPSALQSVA

[6] = target: AURKC (human) (UniProt Q9UQB9)
[7] = target: CAMK2D (human) (UniProt Q13557)
[8] = target: CAMK2G (human) (UniProt Q13555)
[9] = target: CHEK2 (human) (UniProt O96017)
[10] = target: CSNK1D (human) (UniProt P48730)
[11] = target: DCLK2 (human) (UniProt Q8N568)
Chain of DCLK2 (human) (Q8N568 whole entry, looked up): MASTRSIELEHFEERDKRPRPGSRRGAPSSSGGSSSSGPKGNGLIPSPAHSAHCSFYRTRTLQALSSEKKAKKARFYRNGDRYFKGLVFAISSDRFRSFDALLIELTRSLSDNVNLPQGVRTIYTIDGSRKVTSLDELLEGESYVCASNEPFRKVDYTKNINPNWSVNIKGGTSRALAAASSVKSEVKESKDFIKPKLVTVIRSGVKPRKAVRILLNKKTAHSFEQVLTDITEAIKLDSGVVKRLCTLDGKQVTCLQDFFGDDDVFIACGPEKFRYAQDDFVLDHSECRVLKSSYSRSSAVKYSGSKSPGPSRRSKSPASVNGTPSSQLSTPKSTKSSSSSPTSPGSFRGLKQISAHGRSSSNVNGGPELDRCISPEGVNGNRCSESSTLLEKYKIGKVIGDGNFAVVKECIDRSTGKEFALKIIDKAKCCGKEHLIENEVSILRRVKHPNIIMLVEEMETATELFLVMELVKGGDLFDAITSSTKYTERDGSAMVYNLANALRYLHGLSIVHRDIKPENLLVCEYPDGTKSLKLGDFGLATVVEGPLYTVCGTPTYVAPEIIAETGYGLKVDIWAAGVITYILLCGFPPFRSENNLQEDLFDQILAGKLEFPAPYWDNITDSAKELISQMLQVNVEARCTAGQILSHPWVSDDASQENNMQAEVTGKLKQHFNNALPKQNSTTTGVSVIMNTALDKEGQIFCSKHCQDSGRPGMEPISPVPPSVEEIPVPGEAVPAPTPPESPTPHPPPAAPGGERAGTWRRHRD

[12] = target: FER (human) (UniProt P16591)
[13] = target: FGFR3 (human) (UniProt P22607)
Chain of FGFR3 (human) (P22607 whole entry, looked up): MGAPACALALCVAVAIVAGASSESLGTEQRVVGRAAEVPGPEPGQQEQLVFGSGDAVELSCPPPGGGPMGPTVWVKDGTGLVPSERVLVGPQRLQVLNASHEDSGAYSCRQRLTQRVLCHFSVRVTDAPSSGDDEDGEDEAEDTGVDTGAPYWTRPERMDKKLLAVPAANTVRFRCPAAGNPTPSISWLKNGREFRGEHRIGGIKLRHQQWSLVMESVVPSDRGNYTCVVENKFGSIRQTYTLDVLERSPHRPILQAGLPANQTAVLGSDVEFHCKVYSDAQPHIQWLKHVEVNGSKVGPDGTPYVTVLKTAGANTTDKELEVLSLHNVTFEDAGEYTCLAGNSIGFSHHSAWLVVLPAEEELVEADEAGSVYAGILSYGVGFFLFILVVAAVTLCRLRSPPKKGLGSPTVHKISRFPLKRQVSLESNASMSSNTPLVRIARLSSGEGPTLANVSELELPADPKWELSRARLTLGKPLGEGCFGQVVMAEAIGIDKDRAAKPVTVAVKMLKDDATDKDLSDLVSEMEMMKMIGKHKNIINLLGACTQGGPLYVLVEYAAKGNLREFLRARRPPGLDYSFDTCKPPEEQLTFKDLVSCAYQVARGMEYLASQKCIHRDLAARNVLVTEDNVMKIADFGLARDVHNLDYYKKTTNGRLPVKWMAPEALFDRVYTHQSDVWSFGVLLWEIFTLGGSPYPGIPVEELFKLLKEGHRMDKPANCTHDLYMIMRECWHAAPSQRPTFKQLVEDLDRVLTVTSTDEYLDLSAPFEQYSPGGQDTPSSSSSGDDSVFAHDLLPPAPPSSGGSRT

[14] = target: FGFR4 (human) (UniProt P22455)
[15] = test system: FLT3 (human), P36888 [D835Y]
[16] = target: HCK (human) (UniProt P08631)
Chain of HCK (human) (P08631 whole entry, looked up): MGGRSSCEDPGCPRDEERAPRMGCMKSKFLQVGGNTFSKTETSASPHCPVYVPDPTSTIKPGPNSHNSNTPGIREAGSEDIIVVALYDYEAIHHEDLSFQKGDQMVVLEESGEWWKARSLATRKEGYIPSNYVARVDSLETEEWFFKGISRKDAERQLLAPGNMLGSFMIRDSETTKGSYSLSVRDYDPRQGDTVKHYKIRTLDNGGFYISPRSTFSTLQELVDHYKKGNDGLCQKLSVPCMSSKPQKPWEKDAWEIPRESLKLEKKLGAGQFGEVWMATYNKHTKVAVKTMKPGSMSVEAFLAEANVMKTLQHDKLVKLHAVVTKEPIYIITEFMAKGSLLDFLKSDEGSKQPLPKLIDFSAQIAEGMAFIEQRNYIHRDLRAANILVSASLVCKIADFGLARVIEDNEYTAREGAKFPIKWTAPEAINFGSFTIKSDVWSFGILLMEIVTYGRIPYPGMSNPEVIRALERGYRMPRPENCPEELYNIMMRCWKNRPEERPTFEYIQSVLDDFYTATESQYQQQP

[17] = target: IRAK4 (human) (UniProt Q9NWZ3)
[18] = target: LCK (human) (UniProt P06239)
[19] = target: MAPK1 (human) (UniProt P28482)
[20] = target: MAPK11 (human) (UniProt Q15759)
Chain of MAPK11 (human) (Q15759 whole entry, looked up): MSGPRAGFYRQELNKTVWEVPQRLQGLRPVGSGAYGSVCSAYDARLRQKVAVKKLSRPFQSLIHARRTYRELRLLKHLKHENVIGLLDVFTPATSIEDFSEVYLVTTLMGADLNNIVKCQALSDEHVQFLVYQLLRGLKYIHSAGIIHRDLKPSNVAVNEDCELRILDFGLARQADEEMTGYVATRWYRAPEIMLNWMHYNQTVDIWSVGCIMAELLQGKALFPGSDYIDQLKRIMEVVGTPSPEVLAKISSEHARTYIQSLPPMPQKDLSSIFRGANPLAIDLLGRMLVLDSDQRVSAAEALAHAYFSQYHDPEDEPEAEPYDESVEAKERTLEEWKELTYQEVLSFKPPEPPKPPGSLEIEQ

[21] = target: MARK1 (human) (UniProt Q9P0L2)
[22] = target: MARK3 (human) (UniProt P27448)
[23] = target: NEK2 (human) (UniProt P51955)
[24] = target: PAK2 (human) (UniProt Q13177)
[25] = target: PRKCZ (human) (UniProt Q05513)
[26] = target: PRKD1 (human) (UniProt Q15139)
[27] = target: PRKD2 (human) (UniProt Q9BZL6)
[28] = target: PRKD3 (human) (UniProt O94806)
Chain of PRKD3 (human) (O94806 whole entry, looked up): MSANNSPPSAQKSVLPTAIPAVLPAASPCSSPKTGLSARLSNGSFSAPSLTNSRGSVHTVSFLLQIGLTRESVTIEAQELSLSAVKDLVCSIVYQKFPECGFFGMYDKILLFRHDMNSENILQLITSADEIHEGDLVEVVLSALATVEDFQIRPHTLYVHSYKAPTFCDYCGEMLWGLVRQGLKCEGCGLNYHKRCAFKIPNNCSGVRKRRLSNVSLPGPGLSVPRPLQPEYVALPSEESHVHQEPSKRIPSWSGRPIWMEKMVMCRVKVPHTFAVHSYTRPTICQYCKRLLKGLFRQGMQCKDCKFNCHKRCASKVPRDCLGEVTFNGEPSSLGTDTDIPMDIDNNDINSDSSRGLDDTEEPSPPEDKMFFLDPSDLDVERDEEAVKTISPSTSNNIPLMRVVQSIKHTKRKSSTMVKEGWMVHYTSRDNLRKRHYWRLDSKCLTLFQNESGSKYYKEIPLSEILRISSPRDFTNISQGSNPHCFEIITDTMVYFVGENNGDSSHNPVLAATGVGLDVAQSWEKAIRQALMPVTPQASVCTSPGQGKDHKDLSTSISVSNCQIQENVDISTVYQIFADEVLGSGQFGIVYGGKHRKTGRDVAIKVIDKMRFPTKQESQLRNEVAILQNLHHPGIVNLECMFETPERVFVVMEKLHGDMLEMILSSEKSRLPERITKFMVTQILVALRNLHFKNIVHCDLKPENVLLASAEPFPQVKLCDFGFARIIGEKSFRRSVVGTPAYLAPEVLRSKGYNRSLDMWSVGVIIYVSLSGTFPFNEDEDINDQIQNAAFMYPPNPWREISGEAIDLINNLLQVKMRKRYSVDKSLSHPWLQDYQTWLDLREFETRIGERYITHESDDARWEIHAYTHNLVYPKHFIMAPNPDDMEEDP

[29] = target: PRKG1 (human) (UniProt Q13976)
Chain of PRKG1 (human) (Q13976 whole entry, looked up): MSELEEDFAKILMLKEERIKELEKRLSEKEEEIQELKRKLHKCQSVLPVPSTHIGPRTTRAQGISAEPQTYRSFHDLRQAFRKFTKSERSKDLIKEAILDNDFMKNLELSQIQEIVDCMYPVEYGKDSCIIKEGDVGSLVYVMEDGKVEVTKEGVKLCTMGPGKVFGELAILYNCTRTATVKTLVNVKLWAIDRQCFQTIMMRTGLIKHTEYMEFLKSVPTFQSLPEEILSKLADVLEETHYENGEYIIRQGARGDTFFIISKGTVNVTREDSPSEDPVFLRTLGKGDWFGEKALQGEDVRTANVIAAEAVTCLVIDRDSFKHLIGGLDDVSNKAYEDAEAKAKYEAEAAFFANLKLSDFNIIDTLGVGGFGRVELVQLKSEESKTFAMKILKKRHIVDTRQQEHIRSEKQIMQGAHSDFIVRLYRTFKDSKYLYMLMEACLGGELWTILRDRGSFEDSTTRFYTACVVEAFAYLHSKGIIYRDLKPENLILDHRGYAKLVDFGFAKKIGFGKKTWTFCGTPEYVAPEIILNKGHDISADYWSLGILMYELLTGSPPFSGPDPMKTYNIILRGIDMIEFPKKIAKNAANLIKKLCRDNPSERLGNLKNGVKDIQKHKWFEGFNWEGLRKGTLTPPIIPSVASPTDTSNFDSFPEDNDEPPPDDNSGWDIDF

[30] = target: RPS6KA4 KD1 KD2 (human) (UniProt O75676)
[31] = target: RPS6KB1 (human) (UniProt P23443)
[32] = target: SGK1 (human) (UniProt O00141)
[33] = target: STK3 (human) (UniProt Q13188)
[34] = target: SYK (human) (UniProt P43405)

inhibition ([1]; compound 0.1 µM): 14.9%
inhibition [2]: 3.3%
inhibition ([3]; compound 0.1 µM): 12.6%
inhibition ([3]; compound 1.0 µM): 5.2%
inhibition ([4]; compound 0.1 µM): 2%
inhibition ([5]; compound 0.1 µM): 34.7%
inhibition ([6]; compound 0.1 µM): 20.9%
inhibition ([7]; compound 0.1 µM): 32%
inhibition ([7]; compound 1.0 µM): 15.1%
inhibition ([8]; compound 0.1 µM): -7.4%
inhibition ([9]; compound 0.1 µM): 4.63%
inhibition ([9]; compound 1.0 µM): -0.5%
inhibition ([10]; compound 0.1 µM): 20.4%
inhibition ([10]; compound 1.0 µM): 7.4%
inhibition ([11]; compound 0.1 µM): -6%
inhibition ([11]; compound 1.0 µM): -0.3%
inhibition ([12]; compound 0.1 µM): 1.2%
inhibition ([13]; compound 0.1 µM): -12.6%
inhibition ([14]; compound 0.1 µM): -8.7%
inhibition ([15]; compound 0.1 µM): -0.3%
inhibition ([16]; compound 0.1 µM): -2.1%
inhibition ([17]; compound 0.1 µM): 31.2%
inhibition ([17]; compound 1.0 µM): 40.2%
inhibition ([18]; compound 0.1 µM): 18.4%
inhibition ([18]; compound 1.0 µM): -1.2%
inhibition ([19]; compound 0.1 µM): 1.1%
inhibition ([19]; compound 1.0 µM): -4.4%
inhibition ([20]; compound 0.1 µM): -1.4%
inhibition ([21]; compound 0.1 µM): -3.9%
inhibition ([21]; compound 1.0 µM): 33.5%
inhibition ([22]; compound 0.1 µM): 2%
inhibition ([22]; compound 1.0 µM): -4.3%
inhibition ([23]; compound 0.1 µM): 2.7%
inhibition ([23]; compound 1.0 µM): -2.2%
inhibition ([24]; compound 0.1 µM): -7.9%
inhibition ([24]; compound 1.0 µM): 0.9%
inhibition ([25]; compound 0.1 µM): -8%
inhibition ([25]; compound 1.0 µM): 1.3%
inhibition ([26]; compound 0.1 µM): -8.3%
inhibition ([26]; compound 1.0 µM): -1.9%
inhibition ([27]; compound 0.1 µM): -3.8%
inhibition ([27]; compound 1.0 µM): 15%
inhibition ([28]; compound 0.1 µM): -11.5%
inhibition ([28]; compound 1.0 µM): -4.4%
inhibition ([29]; compound 0.1 µM): -3.8% and -2.5%
inhibition ([29]; compound 1.0 µM): -2.7%
inhibition ([30]; compound 0.1 µM): 0.2%
inhibition ([30]; compound 1.0 µM): -17.3%
inhibition ([31]; compound 0.1 µM): -2.7%
inhibition ([31]; compound 1.0 µM): 0%
inhibition ([32]; compound 0.1 µM): 7.2%
inhibition ([32]; compound 1.0 µM): 9.6%
inhibition ([33]; compound 0.1 µM): -0.1%
inhibition ([33]; compound 1.0 µM): -2.7%
inhibition ([34]; compound 0.1 µM): 13.6%
inhibition ([34]; compound 1.0 µM): 0.3%
SMILES: Cn1cc(-c2cnc3ccc4ccc(CS(=O)(=O)NCC5CCCCN5)cc4c(=O)c3c2)cn1 (stereo unspecified)

inhibition ([1]; compound 0.1 µM): -0.9%
inhibition ([1]; compound 1.0 µM): 9.4%
inhibition ([3]; compound 0.1 µM): -2.2%
inhibition ([3]; compound 1.0 µM): 1.3%
inhibition ([4]; compound 0.1 µM): 3.1%
inhibition ([4]; compound 1.0 µM): 3.13%
inhibition ([5]; compound 0.1 µM): 41.7%
inhibition ([5]; compound 1.0 µM): 75%
inhibition ([6]; compound 0.1 µM): 27.7%
inhibition ([6]; compound 1.0 µM): 76.2%
inhibition ([7]; compound 0.1 µM): 4.9%
inhibition ([7]; compound 1.0 µM): 25.1%
inhibition ([8]; compound 0.1 µM): -17.9%
inhibition ([8]; compound 1.0 µM): -1.6%
inhibition ([9]; compound 0.1 µM): -3.5%
inhibition ([9]; compound 1.0 µM): 0.7%
inhibition ([10]; compound 0.1 µM): 7.6%
inhibition ([10]; compound 1.0 µM): 11.1%
inhibition ([11]; compound 0.1 µM): 1.7%
inhibition ([11]; compound 1.0 µM): 8.4%
inhibition ([12]; compound 0.1 µM): -53.2%
inhibition ([12]; compound 1.0 µM): -24.2%
inhibition ([13]; compound 0.1 µM): 41.1%
inhibition ([13]; compound 1.0 µM): 57.9%
inhibition ([14]; compound 0.1 µM): 21.1%
inhibition ([14]; compound 1.0 µM): 19.6%
inhibition ([15]; compound 0.1 µM): 19.1%
inhibition ([15]; compound 1.0 µM): 73.7%
inhibition ([16]; compound 0.1 µM): -59.1%
inhibition ([16]; compound 1.0 µM): -1.6%
inhibition ([17]; compound 0.1 µM): 6%
inhibition ([17]; compound 1.0 µM): -8.2%
inhibition ([18]; compound 0.1 µM): 2.4%
inhibition ([18]; compound 1.0 µM): -1.7%
inhibition ([19]; compound 0.1 µM): -5.5%
inhibition ([19]; compound 1.0 µM): 0.8%
inhibition ([20]; compound 0.1 µM): -1.8%
inhibition ([20]; compound 1.0 µM): -4.1%
inhibition ([21]; compound 0.1 µM): 16.5%
inhibition ([21]; compound 1.0 µM): 81.8%
inhibition ([22]; compound 0.1 µM): -2.4%
inhibition ([22]; compound 1.0 µM): -3.3%
inhibition ([23]; compound 0.1 µM): -1.5%
inhibition ([23]; compound 1.0 µM): -7.5%
inhibition ([24]; compound 0.1 µM): 1.7%
inhibition ([24]; compound 1.0 µM): 0.8%
inhibition ([25]; compound 0.1 µM): -6.7%
inhibition ([25]; compound 1.0 µM): 1%
inhibition ([26]; compound 0.1 µM): -5.2%
inhibition ([26]; compound 1.0 µM): 0.2%
inhibition ([27]; compound 0.1 µM): 7.3%
inhibition ([27]; compound 1.0 µM): -2.6%
inhibition ([28]; compound 0.1 µM): -8.8%
inhibition ([28]; compound 1.0 µM): -1.8%
inhibition ([29]; compound 0.1 µM): -0.5% and 2.6%
inhibition ([29]; compound 1.0 µM): 9.6% and -5.9%
inhibition ([30]; compound 0.1 µM): 15.2%
inhibition ([31]; compound 0.1 µM): 10%
inhibition ([31]; compound 1.0 µM): 13.5%
inhibition ([32]; compound 0.1 µM): 6.8%
inhibition ([32]; compound 1.0 µM): 11.5%
inhibition ([33]; compound 0.1 µM): 4.4%
inhibition ([33]; compound 1.0 µM): 7.9%
inhibition ([34]; compound 0.1 µM): 1.9%
inhibition ([34]; compound 1.0 µM): 7.6%
SMILES: Cn1cc(-c2cnc3ccc4ccc(CS(N)(=O)=O)cc4c(=O)c3c2)cn1
